This note sets out measurements from BindingDB's records for PubMed 38748608 (University of Florida).

This assay has as its target Neuronal acetylcholine receptor alpha9/alpha10 (Homo sapiens). Description: Partial agonist activity at human alpha9alpha10 nAChR expressed as xenopus laevis oocytes assessed as increase in receptor desensitization measured after 120 secs by two-electrode voltage-clamp electrophysiology method. A general note: In two-electrode clamp one electrode senses voltage and the other passes current.

As usually defined, the EC50 is the concentration giving half of the maximal effect.

Turning to `CC[N+]1(C)CCN(c2ccc(NC(C)=O)cc2)CC1`, the EC50 amounted to 640 nM.
